Reference: US8394789B2, “(Dihydro)pyrrolo[2,1-α]isoquinolines” (MSD Oss B.V., priority 2008, dated 2013)

Biological target: T1, human FSH receptor (Homo sapiens, UniProt P23945)
T1 construct: expressed in transfected cells
T1 sequence (P23945 18-695): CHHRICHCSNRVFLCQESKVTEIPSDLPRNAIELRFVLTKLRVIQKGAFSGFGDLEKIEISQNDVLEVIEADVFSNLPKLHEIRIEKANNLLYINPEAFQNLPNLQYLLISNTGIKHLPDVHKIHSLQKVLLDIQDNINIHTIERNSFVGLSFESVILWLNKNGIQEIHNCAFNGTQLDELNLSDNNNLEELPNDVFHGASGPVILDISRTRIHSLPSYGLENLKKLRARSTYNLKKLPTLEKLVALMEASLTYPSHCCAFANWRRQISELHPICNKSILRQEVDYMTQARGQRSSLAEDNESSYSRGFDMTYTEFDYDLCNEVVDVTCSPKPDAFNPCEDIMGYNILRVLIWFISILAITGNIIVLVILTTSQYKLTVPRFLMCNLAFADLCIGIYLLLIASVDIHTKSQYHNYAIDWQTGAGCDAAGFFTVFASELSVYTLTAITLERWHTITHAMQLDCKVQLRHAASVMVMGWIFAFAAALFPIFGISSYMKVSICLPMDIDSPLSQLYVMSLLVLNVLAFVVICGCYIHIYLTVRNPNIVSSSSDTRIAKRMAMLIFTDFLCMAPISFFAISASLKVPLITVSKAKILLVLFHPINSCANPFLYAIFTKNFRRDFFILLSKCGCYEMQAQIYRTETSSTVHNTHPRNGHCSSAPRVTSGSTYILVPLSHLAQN
Experiment: hFSHRago (CHO luc): agonistic activity at the human FSH receptor expressed in CHO cells, CRE-luciferase reporter
Assay type: cell-based
Settings: CHO cells stably transfected with human FSH receptor and CRE/luciferase reporter; 4 hours of incubation
Description: The term EC50 means the concentration of the test compound that elicits half-maximal (50%) stimulation compared to the compound's maximally attainable effect. The values can be determined e.g. in a cell line transfected with a FSH receptor gene and cotransfected with a cAMP responsive element/promoter directing the expression of a reporter gene. Values can be determined using the software program such as MathIQ (version 2.0, ID Business Solutions Limited).
Agonistic activity of the compounds at the human FSH receptor was determined in Chinese Hamster Ovary (CHO) cells stably transfected with the human FSH receptor and cotransfected with a cAMP responsive element (CRE)/promoter directing the expression of a firefly luciferase reporter gene. […] Cells (7,500 cells/well of a 384 well plate) were incubated in Dulbecco' minimal essential F12 modified medium (Invitrogen), supplemented with 1 μg/ml bovine insulin, 5 μg/ml human apo-transferrin, 80 U/ml penicillin G and 80 μg/ml streptomycin with the test compounds (concentration between 0.0316 nM and 10.0 μM) in duplicate in a humidified atmosphere (95%) at 5-7% CO2 and 37° C. The final concentration of DMSO was 1%. After 4 hours of incubation, plates were allowed to adjust to room temperature for 1 hour. Then, Luclite (PerkinElmer) solution was added to the wells and cells were allowed to lyse for at least 1 hour at room temperature. Subsequently, luciferase activity was measured in a luminescence counter. The signal is expressed as counts per second (cps). The EC50 (concentration of the test compound that elicits half-maximal (50%) luciferase stimulation compared to the compound's maximally attainable effect) and efficacy values (maximal effect of the test compound as percentage of the maximal effect of recombinant human FSH) of the compounds were determined using the software program MathIQ (version 2.0, ID Business Solutions Limited).

Structure (SMILES) | EC50 [nM]
COc1cc2c(cc1OC(C)C)-c1c(-c3cccs3)cc(C(=O)N3CCCN(C(=O)C4CCCO4)CC3)n1CC2 (stereo not drawn) [Example 1, (9-Isopropoxy-8-methoxy-1-thiophen-2-yl-5,6-dihydro-pyrrolo[2,1-α]isoquinolin-3-yl)-[4-(tetrahydro-furan-2-carbonyl)-[1,4]diazepan-1-yl]-methanone] | 0.9
COc1cc2c(cc1OC(C)C)-c1c(-c3cccs3)cc(C(=O)N3CCCN(C(=O)CSC)CC3)n1CC2 [Example 2, 1-[4-(9-Isopropoxy-8-methoxy-1-thiophen-2-yl-5,6-dihydro-pyrrolo[2,1-α]isoquinoline-3-carbonyl)-[1,4]diazepan-1-yl]-2-methylsulfanyl-ethanone] | 0.5
COc1cc2c(cc1OC(C)C)-c1c(-c3cccs3)cc(C(=O)N3CCCN(S(=O)(=O)c4cccs4)CC3)n1CC2 [Example 3, (9-Isopropoxy-8-methoxy-1-thiophen-2-yl-5,6-dihydro-pyrrolo[2,1-α]isoquinolin-3-yl)-[4-(thiophene-2-sulfonyl)-[1,4]diazepan-1-yl]-methanone] | 4.6
COc1cc2c(cc1OC(C)C)-c1c(-c3cccs3)cc(C(=O)N3CCCN(C(=O)C(O)C(F)(F)F)CC3)n1CC2 (stereo not drawn) [Example 4, 3,3,3-Trifluoro-2-hydroxy-1-[4-(9-isopropoxy-8-methoxy-1-thiophen-2-yl-5,6-dihydro-pyrrolo[2,1-α]isoquinoline-3-carbonyl)-[1,4]diazepan-1-yl]-propan-1-one] | 1.3
COc1cc2c(cc1OC(C)C)-c1c(-c3cccs3)cc(C(=O)N3CCCN(C(=O)CCN)CC3)n1CC2 [Example 5, 3-Amino-1-[4-(9-isopropoxy-8-methoxy-1-thiophen-2-yl-5,6-dihydro-pyrrolo[2,1-α]isoquinoline-3-carbonyl)-[1,4]diazepan-1-yl]-propan-1-one] | 1400
CNCC(=O)N1CCCN(C(=O)c2cc(-c3cccs3)c3n2CCc2cc(OC)c(OC(C)C)cc2-3)CC1 [Example 6, 1-[4-(9-Isopropoxy-8-methoxy-1-thiophen-2-yl-5,6-dihydro-pyrrolo[2,1-α]isoquinoline-3-carbonyl)-[1,4]diazepan-1-yl]-2-methylamino-ethanone] | 264
COc1cc2c(cc1OC(C)C)-c1c(-c3cccs3)cc(C(=O)N3CCCN(C(=O)C4CCC4)CC3)n1CC2 [Example 7c, (4-Cyclobutanecarbonyl-[1,4]diazepan-1-yl)-(9-isopropoxy-8-methoxy-1-thiophen-2-yl-5,6-dihydro-pyrrolo[2,1-α]isoquinolin-3-yl)-methanone] | 1.7
COc1cc2c(cc1OC(C)C)-c1c(-c3cccs3)c(C#N)c(C(=O)N3CCCN(C(=O)C4CCC4)CC3)n1CC2 [Example 7d, 3-(4-Cyclobutanecarbonyl-[1,4]diazepane-1-carbonyl)-9-isopropoxy-8-methoxy-1-thiophen-2-yl-5,6-dihydro-pyrrolo[2,1-α]isoquinoline-2-carbonitrile] | 0.3
COc1cc2c(cc1OC(C)C)-c1c(-c3cccs3)cc(C(=O)N3CCCN(C(=O)C4(Br)CCC4)CC3)n1CC2 [Example 8, [4-(1-Bromo-cyclobutanecarbonyl)-[1,4]diazepan-1-yl]-(9-isopropoxy-8-methoxy-1-thiophen-2-yl-5,6-dihydro-pyrrolo[2,1-α]isoquinolin-3-yl)-methanone] | 6.8
COc1cc2c(cc1OC(C)C)-c1c(-c3cccs3)cc(C(=O)N3CCCN(C(=O)C4(SC)CCC4)CC3)n1CC2 [Example 9, (9-Isopropoxy-8-methoxy-1-thiophen-2-yl-5,6-dihydro-pyrrolo[2,1-α]isoquinolin-3-yl)-[4-(1-methylsulfanyl-cyclobutanecarbonyl)-[1,4]diazepan-1-yl]-methanone] | 16.4
COc1cc2c(cc1OC(C)C)-c1c(-c3cccs3)cc(C(=O)N3CCCN(C(=O)C4(O)CCC4)CC3)n1CC2 [Example 10, [4-(1-Hydroxy-cyclobutanecarbonyl)-[1,4]diazepan-1-yl]-(9-isopropoxy-8-methoxy-1-thiophen-2-yl-5,6-dihydro-pyrrolo[2,1-α]isoquinolin-3-yl)-methanone] | 1.4
COc1cc2c(cc1OC(C)C)-c1c(-c3cccs3)cc(C(=O)N3CCCN(C(=O)C4(OC)CCC4)CC3)n1CC2 [Example 11, (9-Isopropoxy-8-methoxy-1-thiophen-2-yl-5,6-dihydro-pyrrolo[2,1-α]isoquinolin-3-yl)-[4-(1-methoxy-cyclobutanecarbonyl)-[1,4]diazepan-1-yl]-methanone] | 5.4
COc1cc2c(cc1OC(C)C)-c1c(-c3cccs3)cc(C(=O)N3CCCN(C(C)=O)CC3)n1CC2 [Example 12a] | 5.2
COc1cc2c(cc1OC(C)C)-c1c(-c3cccs3)c(Cl)c(C(=O)N3CCCN(C(C)=O)CC3)n1CC2 [Example 12b, 1-[4-(2-Chloro-9-isopropoxy-8-methoxy-1-thiophen-2-yl-5,6-dihydro-pyrrolo[2,1-α]isoquinoline-3-carbonyl)-[1,4]diazepan-1-yl]-ethanone] | 1.9
COc1cc2c(cc1OC(C)C)-c1c(-c3cccs3)cc(C(=O)N3CCNC(=O)CC3)n1CC2 [Example 13, 1-(9-Isopropoxy-8-methoxy-1-thiophen-2-yl-5,6-dihydro-pyrrolo[2,1-α]isoquinoline-3-carbonyl)-[1,4]diazepan-5-one] | 106
CCCCN1CCN(C(=O)c2cc(-c3cccs3)c3n2CCc2cc(OC)c(OC(C)C)cc2-3)CCC1=O [Example 14a, 4-Butyl-1-(9-isopropoxy-8-methoxy-1-thiophen-2-yl-5,6-dihydro-pyrrolo[2,1-α]iso-quinoline-3-carbonyl)-[1,4]diazepan-5-one] | 0.8
CCCCN1CCN(C(=O)c2cc(-c3cccs3)c3n2CCc2cc(OC)c(OCC(=O)OCC)cc2-3)CCC1=O [Example 14c, [3-(4-Butyl-5-oxo-[1,4]diazepane-1-carbonyl)-8-methoxy-1-thiophen-2-yl-5,6-dihydro-pyrrolo[2,1-α]isoquinolin-9-yloxy]-acetic acid ethyl ester] | 11
CCCCN1CCN(C(=O)c2cc(-c3cccs3)c3n2CCc2cc(OC)c(OCC(C)(C)O)cc2-3)CCC1=O [Example 14d, 4-Butyl-1-[9-(2-hydroxy-2-methyl-propoxy)-8-methoxy-1-thiophen-2-yl-5,6-dihydro-pyrrolo[2,1-α]isoquinoline-3-carbonyl]-[1,4]diazepan-5-one] | 1.5
COc1cc2c(cc1OC(C)C)-c1c(-c3cccs3)cc(C(=O)N3CC=CC3)n1CC2 [Example 15, (2,5-Dihydro-pyrrol-1-yl)-(9-isopropoxy-8-methoxy-1-thiophen-2-yl-5,6-dihydro-pyrrolo[2,1-α]isoquinolin-3-yl)-methanone] | 249
COc1cc2c(cc1OC(C)C)-c1c(-c3cccs3)cc(C(=O)N3CCCN(S(=O)(=O)c4ccc(C)cc4)CCC3)n1CC2 [Example 17, (9-Isopropoxy-8-methoxy-1-thiophen-2-yl-5,6-dihydro-pyrrolo[2,1-α]isoquinolin-3-yl)-[5-(toluene-4-sulfonyl)-perhydro-1,5-diazocin-1-yl]-methanone] | 914
COc1cc2c(cc1OC(C)C)-c1c(-c3cccs3)cc(C(=O)N3CC4CC(CN(C(C)=O)C4)C3)n1CC2 [Example 20, 1-[7-(9-isopopoxy-8-methoxy-1-thiophen-2-yl-5,6-dihydro-pyrrolo[2,1-α]isoquinoline-3-carbonyl)-3,7-diaza-bicyclo[3.3.1]non-3-yl]-ethanone] | 8.2
COc1cc2c(cc1OC(C)C)-c1c(-c3cccs3)cc(C(=O)N3CC4CC(CN(C(=O)CSC)C4)C3)n1CC2 [Example 21, 1-[7-(9-Isopropoxy-8-methoxy-1-thiophen-2-yl-5,6-dihydro-pyrrolo[2,1-α]isoquinoline-3-carbonyl)-3,7-diaza-bicyclo[3.3.1]non-3-yl]-2-methylsulfanyl-ethanone] | 77.8
COc1cc2c(cc1OC(C)C)-c1c(-c3cccs3)cc(C(=O)N3CC4CC(C3)CN(C(=O)C3CCC3)C4)n1CC2 [Example 22, (7-Cyclobutanecarbonyl-3,7-diaza-bicyclo[3.3.1]non-3-yl)-(9-isopropoxy-8-methoxy-1-thiophen-2-yl-5,6-dihydro-pyrrolo[2,1-α]isoquinolin-3-yl)-methanone] | 8.9
COc1cc2c(cc1OC(C)C)-c1c(-c3cccs3)cc(C(=O)NC3C[C@@H]4CN(C(C)=O)C[C@@H]4C3)n1CC2 (stereo partly drawn) [Example 23, 9-Isopropoxy-8-methoxy-1-thiophen-2-yl-5,6-dihydro-pyrrolo[2,1-α]isoquinoline-3-carboxylic acid (2-acetyl-octahydro-cyclopenta[c]pyrrol-5(endo)-yl)-amide] | 787
COc1cc2c(cc1OC(C)C)-c1c(-c3cccs3)cc(C(=O)N(C)C3C[C@@H]4CN(C(C)=O)C[C@@H]4C3)n1CC2 (stereo partly drawn) [Example 24, 9-Isopropoxy-8-methoxy-1-thiophen-2-yl-5,6-dihydro-pyrrolo[2,1-α]isoquinoline-3-carboxylic acid (2-acetyl-octahydro-cyclopenta[c]pyrrol-5(endo)-yl)-methyl-amide] | 191
